Values belong to the molecule of their own block, whether it stands above or below them.
Tests used:
[1] = tested on: Tomato fruits (Solanum lycopersicum L.) of the cultivar ‘Lyterno’; conditions: in vivo
Source text: Tomato fruits (Solanum lycopersicum L.) of the cultivar ‘Lyterno’ (Rijk Zwaan, De Lier, Netherlands) were harvested at the maturity stage “green” (USDA; 2005) from tomato plants which where cultivated in a commercial-like greenhouse at the research station Campus Klein-Altendorf (University of Bonn, Germany). At the early development stages, the trusses were manually thinned to six fruits per truss, according to the common practice aiming standardized fruit size and quality. For the experiment, the last two fruits of the fourth truss, counted from the bottom, were chosen for evaluations. At the beginning of the experiment, […] showing similar color and size were divided into four treatments (n = 25 fruits per treatment). On each fruit, a transparent polyethylene film was placed at the equatorial zone to demark the four evaluation points of 2.8 cm diameter each.
The four treatments were as follows: (1) control; (2) NOP-1, 400 μM; (3) NOP-1, 1000 μM; (4) NOP-1, 2000 μM. The NOP-1 peptide (GenScript, Piscataway, NJ, United States) was dissolved in 5 ml deionized water. On each fruit, a total of 200 microdroplets (0.5 μL each) of the peptide solution were gently deposited (50 micro droplets on each marked area of the tomato fruit) with a Hamilton microdispenser (Hamilton Bonaduz AG, Bonaduz, Switzerland). […]

tomato fruits = conditions: 2007, cited from earlier work; for ripening, lycopene synthesis and chlorophyll breakdown: AVG inhibits ethylene biosynthesis, 1-MCP inhibits ethylene response, ref Saltveit, 2005, Passam et al.; for drawbacks on fruit quality and maturation: in some cases, ref Passam et al.
Source text: Improving shelf life and nutritional quality of tomato fruits is difficult to achieve with the methods currently in use. Maintaining adequate storage conditions is expensive and might cause chilling injury if used improperly ([[…] et al., 2007]). Even though genetic modifications reducing gene expression of proteins involved in ethylene synthesis are possible in principle ([Abano and Buah, 2015]) these procedures are banned by law throughout Europe and have low acceptance among European consumers. Chemical methods such as application of AVG to inhibit ethylene biosynthesis or treatment with ...

[2] = target: tomato ethylene receptor LeETR4 (tomato (Solanum lycopersicum)) (UniProt Q9XET8); assay: MST; 100 nM receptor labeled with Alexa Fluor 488-Maleimide titrated with unlabeled NOP-1 (500 μM to 61.04 nM) in 50 mM Tris-HCl pH 8.0, 300 mM NaCl; Monolith NT.115, 20% MST power (LeETR4) or 60% (NR); triplicate; apparent Kd
[3] = target: T1, tomato ethylene receptor NR (NeverRipe) (tomato (Solanum lycopersicum), UniProt Q41341 1-635, labeled with Alexa Fluor 488-Maleimide); assay: as above; conditions: both partners purified
T1 construct: Tomato ethylene receptor NR (NeverRipe), full-length codon optimized cDNA in pET16b; pET16b normally adds the deca-histidine tag and a factor Xa site at the N-terminus (surmised); Kept in 0.015% FosCholine-16; source: E. coli BL21 (DE3), solubilized with FosCholine-16, purified (HisTrap FF / Ni-NTA)
T1 sequence (looked up): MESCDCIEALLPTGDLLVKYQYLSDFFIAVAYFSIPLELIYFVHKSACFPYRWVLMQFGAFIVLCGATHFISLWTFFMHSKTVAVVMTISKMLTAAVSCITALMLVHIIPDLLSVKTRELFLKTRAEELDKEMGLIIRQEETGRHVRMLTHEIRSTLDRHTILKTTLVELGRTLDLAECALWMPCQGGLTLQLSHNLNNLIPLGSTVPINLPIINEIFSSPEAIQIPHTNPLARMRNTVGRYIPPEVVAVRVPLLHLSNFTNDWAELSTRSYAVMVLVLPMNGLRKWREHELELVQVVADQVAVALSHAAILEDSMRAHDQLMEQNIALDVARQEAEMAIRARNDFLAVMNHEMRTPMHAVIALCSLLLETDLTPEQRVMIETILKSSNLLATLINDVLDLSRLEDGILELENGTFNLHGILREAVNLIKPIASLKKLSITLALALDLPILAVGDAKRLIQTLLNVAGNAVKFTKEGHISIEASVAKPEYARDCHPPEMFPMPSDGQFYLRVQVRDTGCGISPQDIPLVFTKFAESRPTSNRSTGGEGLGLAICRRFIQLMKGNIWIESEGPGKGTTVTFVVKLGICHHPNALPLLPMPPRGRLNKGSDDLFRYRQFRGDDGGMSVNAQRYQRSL

effect on fruit quality [1]: no negative effects on fruit quality
Molecule: CC(C)C[C@H](NC(=O)[C@H](CCCNC(=N)N)NC(=O)[C@H](CCCNC(=N)N)NC(=O)[C@H](CCCCN)NC(=O)[C@H](Cc1ccc(O)cc1)NC(=O)[C@H](CCCNC(=N)N)NC(=O)[C@H](CCCCN)NC(=O)[C@@H](N)CC(C)C)C(=O)O [NOP-1]

Molecule: CC1=CC1 [1-MCP, 1-methylcyclopropene]
ripening, lycopene synthesis and chlorophyll breakdown (tomato fruits): significantly delay ripening and slow down lycopene synthesis and chlorophyll breakdown
drawbacks on fruit quality and maturation (tomato fruits): quality losses in taste development or to complete arrest in maturation

Molecule: NCCO/C=C/[C@H](N)C(=O)O [AVG, aminoethoxyvinylglycine]
ripening, lycopene synthesis and chlorophyll breakdown (tomato fruits): significantly delay ripening and slow down lycopene synthesis and chlorophyll breakdown
drawbacks on fruit quality and maturation (tomato fruits): quality losses in taste development or to complete arrest in maturation

Kd [2]: 4.15 µM
Kd [3]: 23.5 µM
B1: NOP-1 octapeptide (peptide)
peptide: LKRYKRRL
notes: Used unlabeled in MST; also called NLS-derived peptide; source: synthetic peptide (GenScript)

Source: article PMC5591945, “Novel Protein-Protein Inhibitor Based Approach to Control Plant Ethylene Responses: Synthetic Peptides for Ripening Control” (Frontiers in Plant Science, 2017)
